Read-outs that look alike come from different tables or passages of the source.
How the values were obtained:
[1] = system: Caco-2 cell monolayers; assay: Transport across Caco-2 cell monolayers; assay type: in vitro ADME; settings: for Papp AP-BL / efflux ratio (ER) = Papp BL-AP/Papp AP-BL: 1.0 μM; for Papp AP-BL: AP FaSSIF pH 6.5, BL HBSS pH 7.4; for efflux ratio (ER) = Papp BL-AP/Papp AP-BL: Caco-2 monolayer
Method: When Caco-2 cells reached 80–90% confluence in T-25 flasks, the cells were digested, centrifuged, and resuspended. After seeding at a density of 2 × 10^5 cells/well onto the apical of the Transwell® plate, 0.5 mL of 10% DMEM was added into the apical (AP) chamber and 1.5 mL of 10% DMEM was added into the basolateral (BL) chamber. The buffer was refreshed every two days, and after one week it was refreshed daily and incubated until 21 days.
The integrity of the Caco-2 cell monolayer was evaluated by measuring the transepithelial electrical resistance (TEER) and the permeability of Lucifer yellow (LY). The TEER was measured using Millicell® ERS-2 voltameter (Bedford, USA). The Caco-2 cell model was used for the transport of FL77-28 and FL77-29 when the TEER values exceeded 300 Ω/cm^2. The TEER value was also measured at the end of the transport experiment. In addition, the permeability of LY, a paracellular transport marker, was also measured for the tightness of epithelial cells. […] Then, the fluorescence of samples was measured at excitation/emission wavelengths of 492/520 nm using the ELISA Plate.
Before the transport studies, the Caco-2 cell monolayers were washed twice with warm HBSS containing 15 mM glucose, 10 mM HEPES, and 1% BSA (pH 7.4) and pre-incubated for 30 min at 37 °C [26]. Next, HBSS was discarded and replaced with 0.5/1.0 µM of FL77-28 and FL77-29 dissolved in a different buffer on one side of the cell layer, 0.5 mL for the AP side and 1.5 mL for the BL side. The buffer at the AP was FaSSIF (pH 6.5) and the buffer at the BL was HBSS. Then, the monolayers were incubated at 37 °C. A sample aliquot of 0.5 mL (AP-BL) or 0.25 mL (BL-AP) was taken from the receiving compartment at different time points (120, 150, 180, 210, and 240 min) and then replaced with an equal volume of fresh pre-warmed buffer. The concentrations of FL77-28 and FL77-29 in the sample were determined by HPLC.
(§1) Using the Shimadzu HPLC system (Shimadzu, Kyoto, Japan), the samples taken from the uptake experiment and the transport studies were eluted on a C18 reverse-phase column (250 mm × 4.6 mm, 5 μm, Elite, Dalian). The column was maintained at 40 °C and the absorbance detector wavelength was 365 nm. The mobile phase used for FL118, FL77-28, and FL77-29 consisted of acetonitrile: 0.1% formic acid (40:60, v/v), (60:40, v/v), and (65:35, v/v). The flow rate was 1.0 mL/min, and the injection volume was 20 μL. The retention times of FL118, FL77-28, and FL77-29 were 6.109 min (Figure 1A), 8.456 min (Figure 1B), and 6.351 min (Figure 1C), respectively. Calibration curves were constructed over a concentration range of 0.03–1.00 μM. […] The concentration of FL118, FL77-28, and FL77-29 was determined according to the typical equations.
The concentration of each sample was measured by HPLC. The Papp of FL77-28 and FL77-29 was calculated according to the following equation:Papp (cm/s) = V/(C0·A)·(ΔQ/Δt)(1) where V (cm^3) is the volume of the receiver compartment, A is the monolayer surface area of the Transwell insert (1.12 cm^2), C0 is the initial drug concentration in the donor compartment, and (ΔQ/Δt) is the transport rate.
The efflux ratio (ER) was calculated using the following equation:ER = Papp BL-AP/Papp AP-BL(2)

[2] = system: Hep G2; assay: MTT cytotoxicity assay, Hep G2; assay type: cell-based; settings: 72 h, mean ± SD (n = 3)
Method: (§2) HCT 116, HeLa, A549, Hep G2, and Caco-2 cell lines were obtained from the China Center for Type Culture Collection, CCTCC (Wuhan, China). They were cultured in DMEM, including 10% FBS, 1% penicillin (l00 μg/mL), and 1% streptomycin (l00 μg/mL), in a constant temperature incubator at 37 °C with 5% CO2.
(§3) The cytotoxicity of FL118, FL77-28, and FL77-29 against HCT116, HeLa, A549 HepG2, and Caco-2 cell lines were measured using MTT assays. The cells were plated into 96-well plates at a density of 2 × 10^4 cells/mL and cultured for 24 h. Next, the cells were treated with 0.0125–0.500 μM of FL118, FL77-28, and FL77-29 for 4 h or 72 h. After incubation with 20 µL of 5 mg/mL MTT solution for 4 h, the supernatant was gently discarded and 150 µL of DMSO was added to dissolve the formazan crystals. Finally, the absorbance was measured at 570 nm and the background was subtracted at 630 nm using an ELISA Plate Reader.

[3] = system: HCT 116; assay: MTT cytotoxicity assay, HCT 116; assay type: cell-based; settings: HCT 116, MTT, 72 h, mean ± SD (n = 3)
Method: as §2, §3

[4] = target: T1, BCRP (Homo sapiens, UniProt Q9UNQ0); assay: Cellular uptake in Caco-2 cells with BCRP inhibitor Gefitinib; assay type: in vitro ADME; settings: 1 µM Gefitinib pre-incubation 30 min, 0.2-1.0 μM, 37 °C, 4 h
T1 construct: endogenous in cells; host or cells: Caco-2
T1 sequence (Q9UNQ0 1-655): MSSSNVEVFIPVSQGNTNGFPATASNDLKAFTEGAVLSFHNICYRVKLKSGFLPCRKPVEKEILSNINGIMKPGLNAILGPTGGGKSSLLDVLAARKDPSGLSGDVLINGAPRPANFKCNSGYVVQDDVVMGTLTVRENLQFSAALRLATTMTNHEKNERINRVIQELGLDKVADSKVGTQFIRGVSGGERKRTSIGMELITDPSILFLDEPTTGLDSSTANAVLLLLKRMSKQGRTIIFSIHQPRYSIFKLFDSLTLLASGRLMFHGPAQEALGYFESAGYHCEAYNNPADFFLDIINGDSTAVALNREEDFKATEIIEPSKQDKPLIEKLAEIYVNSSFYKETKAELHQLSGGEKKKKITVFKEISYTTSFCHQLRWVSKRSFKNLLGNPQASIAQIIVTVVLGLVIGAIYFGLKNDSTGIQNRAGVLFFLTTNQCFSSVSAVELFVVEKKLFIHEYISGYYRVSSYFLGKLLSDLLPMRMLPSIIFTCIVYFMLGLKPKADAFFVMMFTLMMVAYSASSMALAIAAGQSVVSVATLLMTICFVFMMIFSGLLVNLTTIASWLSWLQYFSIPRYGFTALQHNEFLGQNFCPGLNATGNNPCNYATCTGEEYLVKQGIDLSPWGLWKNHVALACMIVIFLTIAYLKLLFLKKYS
Method: (§4) Caco-2 cells were plated in a 6-well plate at a density of 2 × 10^5 cells/well and cultured at 37 °C. After reaching 80% confluence, Caco-2 cells could be used in the uptake experiments. Next, the cells were washed twice with HBSS and pre-incubated with HBSS or 1 µM Verapamil or Gefitinib for 30 min. After pre-incubation, the drug-free HBSS was replaced by FaSSIF containing FL118, FL77-28, or FL77-29 (0.2, 0.4, 0.6, 0.8, and 1.0 μM), and then incubated for 4 h at 37 °C or 4 °C, respectively. Next, the cells were collected and lysed by freezing and thawing three times. Then, the cells were sonicated and centrifuged at 10,000 rpm for 10 min. Finally, the supernatants were used to measure concentrations of compounds and proteins by HPLC and Bradford methods.
as §1

[5] = system: Caco-2 cells; assay: Cellular uptake in Caco-2 cells, effect of temperature; assay type: in vitro ADME; settings: 4 °C versus 37 °C, 4 h, 0.2-1.0 μM
Method: as §4, §1

[6] = system: A549; assay: MTT cytotoxicity assay, A549; assay type: cell-based; settings: 72 h, mean ± SD (n = 3)
Method: as §2, §3

[7] = target: T2, P-gp (Homo sapiens, UniProt P08183); assay: Cellular uptake in Caco-2 cells with P-gp inhibitor Verapamil; assay type: in vitro ADME; parameters: endogenous in cells; host or cells: Caco-2; settings: 1 µM Verapamil pre-incubation 30 min, 0.2-1.0 μM, 37 °C, 4 h
T2 sequence (P08183 whole entry): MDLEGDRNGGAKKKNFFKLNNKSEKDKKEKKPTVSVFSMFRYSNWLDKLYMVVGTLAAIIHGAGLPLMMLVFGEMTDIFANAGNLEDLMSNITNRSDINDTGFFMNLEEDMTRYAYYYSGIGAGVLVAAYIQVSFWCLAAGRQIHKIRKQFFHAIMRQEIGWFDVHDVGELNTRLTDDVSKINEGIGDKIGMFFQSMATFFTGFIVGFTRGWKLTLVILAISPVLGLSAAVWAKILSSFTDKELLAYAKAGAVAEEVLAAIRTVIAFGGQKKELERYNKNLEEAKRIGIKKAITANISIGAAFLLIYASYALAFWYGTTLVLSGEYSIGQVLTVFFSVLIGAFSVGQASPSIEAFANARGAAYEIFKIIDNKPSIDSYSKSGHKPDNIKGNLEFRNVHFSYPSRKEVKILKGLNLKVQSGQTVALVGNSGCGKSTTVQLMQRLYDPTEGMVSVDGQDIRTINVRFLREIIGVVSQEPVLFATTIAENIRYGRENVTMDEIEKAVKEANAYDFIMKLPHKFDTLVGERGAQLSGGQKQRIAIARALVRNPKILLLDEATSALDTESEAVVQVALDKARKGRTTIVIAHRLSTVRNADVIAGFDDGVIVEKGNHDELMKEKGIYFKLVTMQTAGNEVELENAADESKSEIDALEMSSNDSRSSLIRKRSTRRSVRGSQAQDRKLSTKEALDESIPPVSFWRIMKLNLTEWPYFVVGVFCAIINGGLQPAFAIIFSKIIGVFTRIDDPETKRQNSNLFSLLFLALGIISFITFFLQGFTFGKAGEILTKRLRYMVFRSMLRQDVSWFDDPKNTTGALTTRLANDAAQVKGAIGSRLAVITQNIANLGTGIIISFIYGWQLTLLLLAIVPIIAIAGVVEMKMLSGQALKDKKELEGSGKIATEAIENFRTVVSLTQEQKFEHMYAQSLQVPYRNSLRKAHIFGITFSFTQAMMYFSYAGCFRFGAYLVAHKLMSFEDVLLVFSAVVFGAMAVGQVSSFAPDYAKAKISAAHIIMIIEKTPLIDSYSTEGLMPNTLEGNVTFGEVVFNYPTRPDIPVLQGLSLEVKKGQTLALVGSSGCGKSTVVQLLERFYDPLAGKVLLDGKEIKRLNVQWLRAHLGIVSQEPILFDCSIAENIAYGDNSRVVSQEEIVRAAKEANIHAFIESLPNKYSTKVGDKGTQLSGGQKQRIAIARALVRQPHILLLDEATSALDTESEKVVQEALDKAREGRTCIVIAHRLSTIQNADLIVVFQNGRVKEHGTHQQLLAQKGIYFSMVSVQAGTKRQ
Method: as §4, §1

[8] = system: HeLa; assay: MTT cytotoxicity assay, HeLa; assay type: cell-based; settings: 72 h, mean ± SD (n = 3)
Method: as §2, §3

[9] = system: Caco-2 cells
Method: as §2
as §3, with “Next, the cells were treated with 0.0125–0.500 μM of FL118, FL77-28, and FL77-29 for 4 h or 72 h.” left out

[10] = target: T1, BCRP; settings: cited from earlier work
[11] = target: T2, P-gp; settings: cited from earlier work
[12] = Caco-2 cells, 0.2 to 1.0 μM, 4 h, MTT

| Molecule | Papp AP-BL ([1]; 37 °C) | efflux ratio (ER) = Papp BL-AP/Papp AP-BL [1] | IC50 [2] [nM] | IC50 [3] [nM] | substrate of BCRP (uptake with Gefitinib) [4] | effect of temperature on cellular uptake [5] | IC50 [6] [nM] | substrate of P-gp (uptake with Verapamil) [7] | IC50 [8] [nM] | cell viability [9, 12] | substrate of BCRP [10] | substrate of P-gp [11] | cell viability [9] | Papp of LY (monolayer integrity marker) ([1]; 20 µg/mL, 2 h, 37 °C) |
| --- | --- | --- | --- | --- | --- | --- | --- | --- | --- | --- | --- | --- | --- | --- |
| CC[C@@]1(O)C(=O)OCc2c1cc1n(c2=O)Cc2c-1nc1cc3c(cc1c2-c1ccc(C)c(F)c1)OCO3 [FL77-28, 7-(3-Fluoro-4-methylphenyl)-10,11-methylenedioxy-20(S)-CPT] | 2.32 ± 0.04 × 10^−6 cm/s | 1.14 | 65 ± 1 | 45 ± 14 | not substrates of P-gp or BCRP | no significant effect | 48 ± 7 | not substrates of P-gp | 22 ± 7 | above 90% | – | – | – | – |
| CC[C@@]1(O)C(=O)OCc2c1cc1n(c2=O)Cc2c-1nc1cc3c(cc1c2-c1ccc(F)c(C)c1)OCO3 [FL77-29, 7-(4-Fluoro-3-methylphenyl)-10,11-methylenedioxy-20(S)-CPT] | 2.48 ± 0.18 × 10^−6 cm/s | 1.40 | 34 ± 2 | 25 ± 3 | not a substrate for BCRP | incubation at 4 °C significantly increased the cellar uptake | 28 ± 4 | mediated by P-gp | 36 ± 4 | above 90% | – | – | – | – |
| CC[C@@]1(O)C(=O)OCc2c1cc1n(c2=O)Cc2cc3cc4c(cc3nc2-1)OCO4 [FL118, 10,11-methylenedioxy-20(S)-CPT, reference compound] | – | – | 104 ± 2 | 50 ± 4 | not substrates of P-gp or BCRP | no significant effect | 43 ± 4 | not substrates of P-gp | 40 ± 3 | – | not being a substrate for P-gp or BCRP | not being a substrate for P-gp | above 90% | – |
| Lucifer yellow [LY, reference compound] | – | – | – | – | – | – | – | – | – | – | – | – | – | 0.57 ± 0.14 × 10^−6 cm/s |
